Laboratory results: publication PMC7996328, “Design, Synthesis, and Biological Evaluation of a Series of 5- and 7-Hydroxycoumarin Derivatives as 5-HT1A Serotonin Receptor Antagonists” (Pharmaceuticals, 2021)
Like-named read-outs stand apart in the source and are kept apart here.

Key:
5-HT2A receptor = molecular target: T1, 5-HT2A receptor (Rattus norvegicus, UniProt P14842); assay: 5-HT2A competition binding assay, [3H]ketanserin, frontal cortex homogenates; settings: [3H]ketanserin 1 nM
T1 construct: from tissue; host or cells: rat frontal cortex (male SD), membrane homogenate
T1 sequence (P14842 whole entry): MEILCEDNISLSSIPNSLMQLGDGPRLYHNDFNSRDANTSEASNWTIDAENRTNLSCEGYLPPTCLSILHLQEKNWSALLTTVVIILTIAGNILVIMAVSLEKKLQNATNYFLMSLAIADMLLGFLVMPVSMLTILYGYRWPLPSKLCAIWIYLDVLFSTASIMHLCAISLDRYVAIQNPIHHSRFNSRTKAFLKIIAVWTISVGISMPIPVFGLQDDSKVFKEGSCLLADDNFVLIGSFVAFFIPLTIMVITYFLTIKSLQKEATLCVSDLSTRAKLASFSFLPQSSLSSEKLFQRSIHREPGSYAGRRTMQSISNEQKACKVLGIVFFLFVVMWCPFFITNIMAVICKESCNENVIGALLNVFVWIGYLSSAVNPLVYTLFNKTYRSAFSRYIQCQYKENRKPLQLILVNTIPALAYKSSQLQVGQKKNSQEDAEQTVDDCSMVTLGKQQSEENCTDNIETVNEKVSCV
Method: Male SD rats were decapitated and their brains removed and placed on ice. Frontal cortices were homogenized with a glass homogenizer in 30 vol ice-cold homogenization buffer (50 mM Tris-HCl. 1 mM EDTA. 5 mM MgCl2. pH 7.4). Next, the homogenate was centrifuged at 20,000× g for 15 min at 4 °C. […] The suspension was again centrifuged at 20,000× g for 15 min at 4 °C. The pellet was resuspended in 10 vol. 50 mM Tris-HCl (pH 7.4) and the centrifugation step was repeated. The final pellet was suspended in 10 vol 50 mM Tris-HCl (pH 7.4) and stored at −80 °C.
Non-specific binding was determined in the presence of 10 μM mianserin. After incubation, the reaction mixture was deposited onto UniFilter-96 GF/B plates with the aid of a FilterMate-96 Harvester. Filter plates were presoaked beforehand with 0.4% PEI for 1 h. Next, each filter well was washed with 1.75 mL of 50 mM Tris-HCl (pH 7.4) and left to dry on a heating block set to 50 °C for 2 h. Then 45 µL of Microscint-20 scintillation fluid was added to each filter well and left to equilibrate overnight. Filter-bound radioactivity was counted in a MicroBeta^2 Microplate Counter. Binding curves were fitted with one site non-linear regression. Affinity was presented as the inhibitory constant (pKi ± SEM and Ki ± SEM) from two or three separate experiments.

5-HT1A receptor = molecular target: T2, 5-HT1A receptor (Rattus norvegicus, UniProt P19327); assay: Antagonist activity for the 5-HT1A receptor, [35S]GTPγS assay in hippocampal homogenates; type: biochemical; settings: 8-OH-DPAT 1.4 × 10^−7 M, mean ± SEM; for EC50: antagonistic activity
T2 construct: Hippocampal homogenates (15 μg/mL) were added to each tube as the 5-HT1A receptor source; from tissue; host or cells: rat hippocampus (male Sprague-Dawley), membrane homogenate
T2 sequence (P19327 1-422): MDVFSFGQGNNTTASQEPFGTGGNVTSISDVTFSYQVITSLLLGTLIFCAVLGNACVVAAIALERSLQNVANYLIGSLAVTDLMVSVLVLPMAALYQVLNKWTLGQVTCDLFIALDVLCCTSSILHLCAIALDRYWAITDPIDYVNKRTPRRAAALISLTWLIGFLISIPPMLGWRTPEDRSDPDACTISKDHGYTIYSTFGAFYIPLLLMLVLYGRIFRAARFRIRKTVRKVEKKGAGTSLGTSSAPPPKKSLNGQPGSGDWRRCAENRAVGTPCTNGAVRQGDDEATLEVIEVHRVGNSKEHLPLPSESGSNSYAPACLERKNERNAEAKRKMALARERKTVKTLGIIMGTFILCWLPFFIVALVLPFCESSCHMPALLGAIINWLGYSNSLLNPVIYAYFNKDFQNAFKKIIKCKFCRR
Method: Male Sprague–Dawley rats were decapitated, their brains removed, and placed on ice. Hippocampi were dissected and homogenized with a glass homogenizer in 30 vol. ice-cold TED buffer (50 mM Tris-HCl, 1 mM EDTA, 1mM dithiotheritol, pH 7.4). Next, the homogenate was centrifuged at 21,000× g for 30 min at 4 °C. […] The suspension was centrifuged again at 21,000× g for 30 min at 4 °C. The pellet was resuspended in 30 vol. TED buffer (pH 7.4) and the centrifugation step was repeated. The final pellet was suspended in 10 vol 50 mM Tris-HCl (pH 7.4) and stored at −80 °C until use.
Serial dilutions of the compounds tested (10^−10–10^−5 M) were incubated in triplicate with 0.8 nM [^35S]GTPγS in assay buffer (50 mM Tris-HCl, pH = 7.4, 1 mM EGTA, 3 mM MgCl2, 100 mM NaCl, 30 µM GDP) and 8-OH-DPAT (final concentration 1.4 × 10^−7 M) in the final assay volume of 250 µL. Hippocampal homogenates (15 μg/mL) were added to each tube as the 5-HT1A receptor source. […] Non-specific binding was determined with 10 µM of unlabeled GTPγS. […] Next, 96-well Unifilter® Plates (Perkin Elmer, Waltham, MA, USA) were presoaked for 1 h with 50 mM Tris-HCl (pH = 7.4) before harvesting. The reaction was terminated by vacuum filtration onto filter plates with the FilterMate Harvester® (Perkin Elmer, Waltham, MA, USA). The samples were then rapidly washed with 2 mL of 50 mM Tris-HCl (pH = 7.4) buffer. Filter plates were dried for 2 h at 50 °C. After drying, 45 µL of EcoScint-20 scintillant (Perkin Elmer) was added to every well. Radioactivity was counted in a Trilux MicroBeta^2 counter (Perkin Elmer). Data were analyzed with GraphPad Prism 5.0 software (GraphPad Software, San Diego, CA, USA, www.graphpad.com). Curves were fitted with a one-site non-linear regression model. Efficacy (Emax) and half maximal inhibitory concentration (IC50) were calculated from the Cheng–Prusoff equation and expressed as means ± SEM.

[1] = read-out: Ki (nM ± SEM) (converted)
[2] = read-out: pKi (M ± SEM) (converted)

Row | SMILES | Ki (5-HT2A receptor; [1]) [nM] | IC50 (5-HT1A receptor) [µM] | EC50 (5-HT1A receptor) [nM] | melting point [°C] | Ki (5-HT2A receptor; [2]) [nM]
1 | CC(=O)c1c(C)cc2oc(=O)cc(C)c2c1OCCCCCN1CCN(c2ccccc2Br)CC1 [Compound 3f, 6-acetyl-5-(5-(4-(2-bromophenyl)piperazin-1-yl)pentyloxy)-4,7-dimethyl-2H-chromen-2-one] | 354 ± 110 | 0.692 | 689 ± 138 | 108 to 109 | –
2 | CC(=O)c1c(OCCCCCN2CCN(c3cccc(Br)c3)CC2)ccc2c(C)cc(=O)oc12 [Compound 5g, 8-acetyl-7-(5-[4-(3-bromohenyl)piperazin-1-yl]penthoxy)-4-methylchromen-2-one] | 81 ± 19 | 25.1 | 21500 | 119 to 121 | –
3 | CC(=O)c1c(C)cc2oc(=O)cc(C)c2c1OCCCCCN1CCN(c2cc(C)cc(C)c2)CC1 [Compound 3h, 6-acetyl-5-(5-(4-(3,5-dimethylphenyl)piperazin-1-yl)pentyloxy)-4,7-dimethyl-2H-chromen-2-one] | 1800 ± 521 | 1.26 | 1240 ± 112 | 100 to 102 | –
4 | COc1cccc(N2CCN(CCCCCOc3c(C(C)=O)c(C)cc4oc(=O)cc(C)c34)CC2)c1 [Compound 3c, 6-acetyl-5-(5-(4-(3-methoxyphenyl)piperazin-1-yl)pentyloxy)-4,7-dimethyl-2H-chromen-2-one] | 492 ± 99.7 | 1.58 | 1550 ± 190 | 86 to 88 | –
5 | CC(=O)c1c(OCCCCCN2CCN(c3cc(C)cc(C)c3)CC2)ccc2c(C)cc(=O)oc12 [Compound 5h, 8-acetyl-7-(5-[4-(3,5-dimethylphenyl)piperazin-1-yl]penthoxy)-4-methylchromen-2-one] | 291 ± 57 | 31.6 | 32900 | 113 to 115 | –
6 | CC(=O)c1c(OCCCCCN2CCN(c3ccccc3F)CC2)ccc2c(C)cc(=O)oc12 [Compound 5b, 8-acetyl-7-(5-[4-(2-fluorophenyl)piperazin-1-yl]penthoxy)-4-methylchromen-2-one] | 122 ± 43 | 0.0794 | 82 ± 13.4 | 95 to 97 | –
7 | Cc1cc(OCCCCCN2CCN(c3ccccc3C#N)CC2)c2c(C)cc(=O)oc2c1 [Compound 1j, 5-(5-(4-(2-cyanophenyl)piperazin-1-yl)pentyloxy)-4,7-dimethyl-2H-chromen-2-one] | 79 ± 18 | 79.4 | 74700 | 148 to 149 | –
8 | CC(=O)c1c(C)cc2oc(=O)cc(C)c2c1OCCN1CCN(c2ccccc2F)CC1 [Compound 4b, 6-acetyl-5-(2-(4-(2-fluorophenyl)piperazin-1-yl)ethoxy)-4,7-dimethyl-2H-chromen-2-one] | 7050 ± 1650 | 5.01 | 5000 ± 218 | 118 to 119 | –
9 | COc1cccc(N2CCN(CCOc3ccc4c(C)cc(=O)oc4c3C(C)=O)CC2)c1 [Compound 6c, 8-acetyl-7-(2-[4-(3-methoxyphenyl)piperazin-1-yl]ethoxy)-4-methylchromen-2-one] | 920 ± 160 | 50.1 | 47200 | 122 to 124 | 933
10 | CC(=O)c1c(C)cc2oc(=O)cc(C)c2c1OCCN1CCN(c2cccc(F)c2)CC1 [Compound 4e, 6-acetyl-5-(2-(4-(3-fluorophenyl)piperazin-1-yl)ethoxy)-4,7-dimethyl-2H-chromen-2-one] | 3860 ± 810 | 0.501 | 527 ± 191 | 135 to 136 | –
11 | CC(=O)c1c(C)cc2oc(=O)cc(C)c2c1OCCN1CCN(c2ccccc2Br)CC1 [Compound 4f, 6-acetyl-5-(2-(4-(2-bromophenyl)piperazin-1-yl)ethoxy)-4,7-dimethyl-2H-chromen-2-one] | 10600 | 8.32 | 8320 ± 1500 | 83 to 85 | –
12 | CC(=O)c1c(OCCCCCN2CCN(c3ccccc3Br)CC2)ccc2c(C)cc(=O)oc12 [Compound 5f, 8-acetyl-7-(5-[4-(2-bromophenyl)piperazin-1-yl]penthoxy)-4-methylchromen-2-one] | 108 ± 24 | 31.6 | 27400 | 102 to 103 | 110
13 | Cc1cc(OCCCCCN2CCN(c3cccc(Cl)c3Cl)CC2)c2c(C)cc(=O)oc2c1 [Compound 1i, 5-(5-(4-(2,3-dichlorophenyl)piperazin-1-yl)pentyloxy)-4,7-dimethyl-2H-chromen-2-one] | 1450 ± 653 | 15.8 | 13700 | 162 to 163 | –
14 | COc1cccc(N2CCN(CCCCCOc3ccc4c(C)cc(=O)oc4c3C(C)=O)CC2)c1 [Compound 5c, 8-acetyl-7-(5-[4-(3-methoxyphenyl)piperazin-1-yl]penthoxy)-4-methylchromen-2-one] | 144 ± 38 | 25.1 | 22900 | – | –
15 | Cc1cc(OCCBr)c2c(C)cc(=O)oc2c1 [Compound 2, 5-(2-bromoethoxy)-4,7-dimethyl-2H-chromen-2-one] | – | – | – | 121 to 123 | –
16 | Cc1cc(OCCCCCBr)c2c(C)cc(=O)oc2c1 [Compound 1, 5-(5-bromopentyloxy)-4,7-dimethyl-2H-chromen-2-one] | – | – | – | 99 to 101 | –
17 | CC(=O)c1c(C)cc2oc(=O)cc(C)c2c1OCCN1CCN(c2cc(C)ccc2C)CC1 [Compound 4d, 6-acetyl-5-(2-(4-(2,5-dimethylphenyl)piperazin-1-yl)ethoxy)-4,7-dimethyl-2H-chromen-2-one] | 11900 | 79.4 | 74700 | – | –
18 | COc1ccccc1N1CCN(CCCCCOc2c(C(C)=O)c(C)cc3oc(=O)cc(C)c23)CC1 [Compound 3a, 6-acetyl-5-(5-(4-(2-methoxyphenyl)piperazin-1-yl)pentyloxy)-4,7-dimethyl-2H-chromen-2-one] | 641 ± 128 | 0.0398 | 39.4 ± 3.63 | – | –
19 | CC(=O)c1c(C)cc2oc(=O)cc(C)c2c1OCCN1CCN(c2cc(C)cc(C)c2)CC1 [Compound 4h, 6-acetyl-5-(2-(4-(3,5-dimethylphenyl)piperazin-1-yl)ethoxy)-4,7-dimethyl-2H-chromen-2-one] | 1920 ± 382 | 39.8 | 26800 | – | –
20 | CC(=O)c1c(C)cc2oc(=O)cc(C)c2c1OCCBr [Compound 4, 6-acetyl-5-(2-bromoethoxy)-4,7-dimethyl-2H-chromen-2-one] | – | – | – | 168 to 169 | –
21 | CC(=O)c1c(OCCBr)ccc2c(C)cc(=O)oc12 [Compound 6, 8-acetyl-7-(2-bromoethoxy)-4-methylchromen-2-one] | – | – | – | 140 to 142 | –
22 | CC(=O)c1c(C)cc2oc(=O)cc(C)c2c1OCCCCCBr [Compound 3, 6-acetyl-5-(5-bromopentyloxy)-4,7-dimethyl-2H-chromen-2-one] | – | – | – | 78 to 80 | –
